Laboratory results: ChEMBL document CHEMBL2069304, “Indole alkaloids from two cultured cyanobacteria, Westiellopsis sp. and Fischerella muscicola” (Bioorg Med Chem, 2012)
Values after ≈ are worked out from the molar mass of the structure shown. Active and inactive are the calls of the source. The calls are words filed in the database; no cut-off is given here.

Legend:
Staphylococcus aureus = test: Antimicrobial activity against Staphylococcus aureus by broth microdilution assay; format: functional
Candida albicans = test: Antimicrobial activity against Candida albicans by broth microdilution assay; format: functional
[1] = system: Mycolicibacterium smegmatis; test: Antimicrobial activity against Mycobacterium smegmatis by broth microdilution assay; format: functional
Escherichia coli = test: Antimicrobial activity against Escherichia coli by broth microdilution assay; format: functional
[2] = system: Mycobacterium tuberculosis; test: microbe, parasite or virus in culture; conditions: H37Rv
Description: Antimicrobial activity against Mycobacterium tuberculosis H37Rv by microplate Alamar blue assay

Acinetobacter baumannii = test: Antimicrobial activity against Acinetobacter baumannii by broth microdilution assay; format: functional
Vero = test: Cytotoxicity against african green monkey Vero cells by CellTiter 96 aqueous nonradioactive cell proliferation assay; format: cell-based; conditions: Chlorocebus sabaeus
Homo sapiens = organism: Homo sapiens; test: Inhibition of 20S proteasome at 25 ug/ml
MCF7 = test: Cytotoxicity against human MCF7 cells incubated for 3 days by SRB assay; format: functional, cell-based; conditions: MCF7, 72 h
SF-268 = test: Cytotoxicity against human SF268 cells incubated for 3 days by SRB assay; format: functional, cell-based; conditions: SF-268, 72 h
IMR-90 = test: Cytotoxicity against human IMR90 cells incubated for 3 days by SRB assay; format: cell-based; conditions: IMR-90, 72 h
NCI-H460 = test: Cytotoxicity against human NCI-H460 cells incubated for 3 days by SRB assay; format: functional, cell-based; conditions: NCI-H460, 72 h
HT-29 = test: Cytotoxicity against human HT-29 cells by CellTiter 96 Aqueous One solution cell proliferation assay; format: functional, cell-based
[3] = Homo sapiens, HT-29, read-out: IC50

CC1(C)S[C@@H]2[C@H](NC(=O)[C@H](N)c3ccccc3)C(=O)N2[C@H]1C(=O)O [AMPICILLIN]
MIC (Staphylococcus aureus): 1.54 µM (≈ 0.538 µg/mL)

CCCCCC#CC#C/C=C/CCCC[C@H]1C[C@@H](C)C(=O)N1 [FISCHERELLIN B]
MIC (Staphylococcus aureus): > 100 µM | MIC (Candida albicans): > 100 µM | MIC [1]: > 100 µM | MIC (Escherichia coli): > 100 µM | MIC [2]: 23 µM (≈ 6.89 µg/mL) | MIC (Acinetobacter baumannii): > 100 µM | IC50 (Vero): > 100 µM

CO[C@H]1/C=C/O[C@@]2(C)Oc3c(C)c(O)c4c(O)c(c(/C=N/N5CCN(C)CC5)c(O)c4c3C2=O)NC(=O)/C(C)=C\C=C\[C@H](C)[C@H](O)[C@@H](C)[C@@H](O)[C@@H](C)[C@H](OC(C)=O)[C@@H]1C [RIFAMPIN]
MIC [2]: 0.24 µM (≈ 0.198 µg/mL)

C[C@H]1c2cccc(O)c2C(=O)C2=C(O)[C@]3(O)C(=O)C(C(N)=O)=C(O)[C@@H](N(C)C)[C@@H]3[C@@H](O)[C@@H]21 [DOXYCYCLINE]
MIC (Acinetobacter baumannii): 0.35 µM (≈ 0.156 µg/mL)

CN[C@@H]1[C@H](O[C@H]2[C@H](O[C@H]3[C@H](O)[C@@H](O)[C@H](N=C(N)N)[C@@H](O)[C@@H]3N=C(N)N)O[C@@H](C)[C@]2(O)C=O)O[C@@H](CO)[C@H](O)[C@H]1O [STREPTOMYCIN]
MIC [1]: 0.41 µM (≈ 0.238 µg/mL)

[C-]#[N+][C@@H]1[C@H](c2c[nH]c3ccccc23)[C@@H](C(=C)C)CC[C@]1(C)C=C [HAPALINDOLE C]
inhibition (Homo sapiens): inactive | IC50 (MCF7): > 100 µM | IC50 (SF-268): 88.6 µM | IC50 (IMR-90): > 100 µM | IC50 (NCI-H460): 53.7 µM

[C-]#[N+][C@@H]1C2=C3C(=O)Nc4cccc(c43)C(C)(C)[C@H]2C[C@@H](Cl)[C@]1(C)C=C [ANHYDROHAPALOXINDOLE A]
MIC (Staphylococcus aureus): 27.3 µM (≈ 9.63 µg/mL) | MIC (Candida albicans): 1.9 µM (≈ 0.67 µg/mL) | MIC [1]: > 100 µM | MIC (Escherichia coli): > 100 µM | MIC [2]: 16.2 µM (≈ 5.72 µg/mL) | IC50 (MCF7): 56.7 µM | IC50 (SF-268): 26 µM | IC50 (IMR-90): 80.1 µM | IC50 (NCI-H460): 18.7 µM | MIC (Acinetobacter baumannii): > 100 µM

[C-]#[N+][C@@H]1[C@H]2c3c[nH]c4cccc(c34)C(C)(C)[C@H]2C[C@@H](Cl)[C@]1(C)C=C [HAPALINDOLE A]
MIC (Staphylococcus aureus): 3.9 µM (≈ 1.32 µg/mL) | MIC (Candida albicans): 1.2 µM (≈ 0.407 µg/mL) | MIC [1]: 18.2 µM (≈ 6.17 µg/mL) | MIC (Escherichia coli): 8 µM (≈ 2.71 µg/mL) | MIC [2]: < 0.6 µM | IC50 (MCF7): 30.7 µM | IC50 (SF-268): 16.3 µM | IC50 (IMR-90): 39.1 µM | IC50 (NCI-H460): 17 µM | MIC (Acinetobacter baumannii): > 100 µM | IC50 (Vero): 25.6 µM

GENTAMICIN
MIC (Escherichia coli): 2.3 µM

[C-]#[N+][C@H]1C(=C)[C@@H](C=C)C[C@@H]2[C@@H]1c1c[nH]c3cccc(c13)C2(C)C (relative stereo)
MIC (Staphylococcus aureus): 9.1 µM (≈ 2.75 µg/mL) | MIC (Candida albicans): 2.5 µM (≈ 0.756 µg/mL) | MIC [1]: 78.8 µM (≈ 23.8 µg/mL) | MIC (Escherichia coli): > 100 µM | MIC [2]: 2.5 µM (≈ 0.756 µg/mL) | IC50 (MCF7): 35.4 µM | IC50 (SF-268): 23.5 µM | IC50 (HT-29; [3]): 24.8 µM | IC50 (IMR-90): 113 µM | IC50 (NCI-H460): 23 µM | MIC (Acinetobacter baumannii): > 100 µM

[C-]#[N+]C1=C2c3c[nH]c4cccc(c34)C(C)(C)[C@H]2C[C@@H](Cl)[C@]1(C)C=C [HAPALINDOLE I]
MIC (Staphylococcus aureus): > 100 µM | MIC (Candida albicans): > 100 µM | MIC [1]: > 100 µM | MIC (Escherichia coli): > 100 µM | MIC [2]: 2 µM (≈ 0.674 µg/mL) | IC50 (MCF7): > 100 µM | IC50 (SF-268): 93.1 µM | IC50 (HT-29; ht-29): Not Active | IC50 (IMR-90): > 100 µM | IC50 (NCI-H460): 68.5 µM | MIC (Acinetobacter baumannii): > 100 µM | IC50 (Vero): > 100 µM

[C-]#[N+][C@@H]1[C@H]2c3c([nH]c4ccccc34)C(C)(C)[C@H]2C[C@@H](Cl)[C@@]1(C)C=C [FISCHERINDOLE L]
MIC (Staphylococcus aureus): 6.4 µM (≈ 2.17 µg/mL) | MIC (Candida albicans): 1.2 µM (≈ 0.407 µg/mL) | MIC [1]: 63 µM (≈ 21.3 µg/mL) | MIC (Escherichia coli): > 100 µM | MIC [2]: 22 µM (≈ 7.46 µg/mL) | IC50 (MCF7): 28.3 µM | IC50 (SF-268): 17.4 µM | IC50 (IMR-90): 46.3 µM | IC50 (NCI-H460): 15.1 µM | MIC (Acinetobacter baumannii): > 100 µM | IC50 (Vero): < 9.2 µM

[C-]#[N+][C@@H]1[C@H]2c3c[nH]c4cccc(c34)C(C)(C)[C@@H]2CC[C@]1(C)C=C [HAPALINDOLE H]
IC50 (MCF7): 16.3 µM | IC50 (SF-268): 10.6 µM | IC50 (IMR-90): 31.9 µM | IC50 (NCI-H460): 8.5 µM

[C-]#[N+][C@@H]1[C@@H]2c3c[nH]c4cccc(c34)C(C)(C)[C@H]2CC[C@]1(C)C=C [HAPALINDOLE U]
IC50 (MCF7): > 100 µM | IC50 (SF-268): > 100 µM | IC50 (HT-29; [3]): 52.6 µM | IC50 (IMR-90): > 100 µM | IC50 (NCI-H460): > 100 µM

C=C[C@]1(C)CC2C(=O)c3c(NC=O)cccc3C(C)(C)[C@H]2C[C@H]1O (relative stereo)
MIC (Staphylococcus aureus): > 100 µM | MIC (Candida albicans): > 100 µM | MIC [1]: > 100 µM | MIC (Escherichia coli): > 100 µM | MIC [2]: > 100 µM | IC50 (MCF7): > 100 µM | IC50 (SF-268): > 100 µM | IC50 (HT-29; ht-29): Not Active | IC50 (IMR-90): > 100 µM | IC50 (NCI-H460): > 100 µM | MIC (Acinetobacter baumannii): > 100 µM | IC50 (Vero): > 100 µM

[C-]#[N+][C@@H]1[C@H]2c3c[nH]c4cccc(c34)C(C)(C)[C@H]2CC[C@]1(C)C=C [HAPALINDOLE J]
MIC (Staphylococcus aureus): 8.4 µM (≈ 2.56 µg/mL) | MIC (Candida albicans): 0.7 µM (≈ 0.213 µg/mL) | MIC [1]: 39 µM (≈ 11.9 µg/mL) | MIC (Escherichia coli): > 100 µM | MIC [2]: 4.3 µM (≈ 1.31 µg/mL) | IC50 (MCF7): 43.7 µM | IC50 (SF-268): 16.9 µM | IC50 (HT-29; [3]): 28.6 µM | IC50 (IMR-90): 39.1 µM | IC50 (NCI-H460): 12 µM | MIC (Acinetobacter baumannii): > 100 µM

C[C@@H]1[C@H](O)[C@@H](C)/C=C/C=C/C=C/C=C/C=C/C=C/C=C/[C@H](O[C@@H]2O[C@H](C)[C@@H](O)[C@H](N)[C@@H]2O)C[C@@H]2O[C@](O)(C[C@@H](O)C[C@@H](O)[C@H](O)CC[C@@H](O)C[C@@H](O)CC(=O)O[C@H]1C)C[C@H](O)[C@H]2C(=O)O [AMPHOTERICIN B]
MIC (Candida albicans): 0.12 µM (≈ 0.111 µg/mL)

[C-]#[N+]C1=C2c3c[nH]c4cccc(c34)C(C)(C)[C@H]2CC[C@]1(C)C=C (relative stereo)
MIC (Staphylococcus aureus): > 100 µM | MIC (Candida albicans): > 100 µM | MIC [1]: > 100 µM | MIC (Escherichia coli): > 100 µM | MIC [2]: > 100 µM | MIC (Acinetobacter baumannii): > 100 µM | IC50 (Vero): > 100 µM

CC[C@@]1(O)C(=O)OCc2c1cc1n(c2=O)Cc2cc3ccccc3nc2-1 [CAMPTOTHECIN]
IC50 (MCF7): 0.08 µM | IC50 (SF-268): 0.07 µM | IC50 (IMR-90): 0.43 µM | IC50 (NCI-H460): 0.002 µM
